Experimental data taken from US8349365B2, “Cellooligosaccharide-containing composition” (priority 2005, dated 2013).
Each block holds one molecule with its values, some of them ahead of it.

Key:
[1] = system: rough skin, inner side of the forearm; experiment: transepidermal water loss (TEWL) recovery test; format: in vivo, human
Source text: The barrier function in the present invention is expressed by the recovery-promoting rate of transepidermal water loss, and the recovery-promoting rate of transepidermal water loss of the agent for improving barrier function of the present invention is preferably 10% or higher. The recovery-promoting rate referred to herein is expressed by a decreasing rate of relative transepidermal water loss of the cellooligosaccharide-containing composition to a relative transepidermal water loss of purified water using a relative transepidermal water loss 2 hours after applications of the aqueous cellooligosaccharide solution and a relative transepidermal water loss obtained from purified water to the rough skin. This value is obtained by the following expression. Recovery-promoting rate(%)=([relative transepidermal water loss of water)−[relative transepidermal water loss of cellooligosaccharide-containing composition]/(relative transepidermal water loss of water)×100
Furthermore, a relative value of the above-mentioned transepidermal water loss (relative transepidermal water loss) can be measured by transepidermal water loss (TEWL) in the rough skin. First, the inner side of the forearm (test site) is wiped with 70% ethanol and habituated in a room with a constant temperature and a humidity (room temperature 22° C., humidity 45%) for 15 minutes, and the test site is measured with a 2-channel moisture loss monitor (manufactured by Asahi Biomed, TW-AS type to obtain the initial TEWL value (TEWEL0). Then, after measurement of the initial TEWL, the test site is washed with water, the test site is coated with 2% by mass of sodium dodecylsulfate (SDS, by a closed patch and washed with water using a Finn chamber (manufactured by Epitest), and then TEWL (TSWL rough skin) is measured in the same manner as described above. Then purified water or the aqueous cellooligosaccharide solution of the present invention is applied to the same site, and TEWL at the site is measured 2 hours after application (TEWL2) by the above-described method. […]

[2] = oil retention (rapeseed oil); format: physicochemical; conditions: same manner as in Example 4
Source text: The oil retention of the cellooligosaccharide composition of the present invention is preferably 0.9 g/g. The term “oil retention” means the amount of oil absorbed per 1 g of powder measured by placing 2 g of a cellooligosaccharide composition on a glass plate, kneading powder with a spatula while adding rapeseed oil (Nissin Canola Oil, dropwise using a pipette, and using the point at which oil soaks out of the powder surface as the end point and is expressed by Oil retention (g/g)=amount of oil absorption (g)/amount of cellooligosaccharide composition (g). A greater value is preferable because separation or soaking out of oil, semisolid or liquid can be prevented when a food, a cosmetic, a drug, or a quasi-drug is produced with a prescription containing oil or a prescription containing a semisolid or a liquid at room temperature. The oil retention is more preferably in the range of 1.0 g/g and higher, particularly preferably in the range of 1.1 g/g and higher.

Compound: OC[C@H]1O[C@H](OC[C@H]2O[C@H](O[C@]3(CO)O[C@H](CO)[C@@H](O)[C@@H]3O)[C@H](O)[C@@H](O)[C@@H]2O)[C@H](O)[C@@H](O)[C@H]1O [compound 9, raffinose]
relative TEWL value after 2 hours ([1]; SDS-treated forearm skin of 3 male and 2 female subjects, rough skin taken as 100, 2 hours after application): 42.1%
TEWL RECOVERY-PROMOTING RATE AFTER 2 HOURS ([1]; relative to purified water, 2 hours after application): −7.1%

oil retention [2]: 0.85
Compound: OC[C@H]1O[C@@H](O[C@H]2[C@H](O)[C@@H](O)[C@H](O)O[C@@H]2CO)[C@H](O)[C@@H](O)[C@@H]1O [D-cellobiose]

Compound: OC[C@H]1O[C@H](OC[C@H]2O[C@H](O[C@]3(CO)O[C@H](CO)[C@@H](O)[C@@H]3O)[C@H](O)[C@@H](O)[C@@H]2O)[C@H](O)[C@@H](O)[C@H]1O [compound 13, raffinose]
relative TEWL value ([1]; measured in the same manner as in Examples 19 to 23, 5% by mass): 42.1%
